Each block holds one compound with its values, some of them ahead of it.
Molecular target: T1, BTK (Homo sapiens, UniProt Q06187)
T1 construct: immunofluorescence degradation readout, 48 h
Assay: BTK IFA Assay (BTK degradation in OCI-Ly10 cells)
Type: cell-based
Settings: BTK degradation in OCI-Ly10 cells at 48-hour timepoint
Description: The purpose of the BTK Assays were to assess the binding affinity of the dimer to BTK and subsequent protein degradation.
OCI-Ly10 cells were obtained from CoBioer Biosciences Co. Ltd, Shanghai, China, and maintained in IMDM (Invitrogen™, Waltham, MA) supplemented with 20% FBS (AusGeneX, Molendinar, Australia) and 1%, penicillin/streptomycin (Invitrogen™, Waltham, MA) in a humidified incubator at 5% CO2, 37° C.
Compounds were dissolved in DMSO (10 mM), serially diluted from 10 mM to 1.5 nM, and pre-incubated for 2 hours. Exponentially growing cells were seeded at 8×10^3 cells per well of 384 well plate (Corning, New York #356663). Cells were treated with compound for 48 hours. Following treatment, cells were fixed with 4% PFA (SolarBio Lifescience, Beijing, China) for 20 minutes, permeabilised in 100% ice-cold methanol (Merck, Darmstadt, Germany) for 10 minutes, and blocked with blocking buffer (LI-COR Biosciences Lincoln, NE) for 90 minutes.
Cells were incubated with primary BTK antibody (CST #8547 Danvers, MA) at 1:1000 dilution overnight in blocking buffer (LI-COR, Lincoln, NE) at 4° C. Cells were washed in DPBS (Thermo Fisher Scientific, Waltham, MA) and incubated with secondary antibody AlexaFluor 488 goat anti rabbit (Invitrogen™ #A-11008 Waltham, MA) 1:1000 dilution, with Hoechst stain (Invitrogen™ Waltham, MA) 1:5000 dilution in blocking buffer (LI-COR Biosciences, Lincoln, NE) for 90 minutes. After final DPBS wash, 200 ul of DPBS was added to the cells, and signal read on Operetta (Revvity, Waltham, MA). Each data point was performed in duplicate for every experiment. A DC50 value was calculated from linear regression analysis of the plots.

T1 sequence (Q06187 whole entry): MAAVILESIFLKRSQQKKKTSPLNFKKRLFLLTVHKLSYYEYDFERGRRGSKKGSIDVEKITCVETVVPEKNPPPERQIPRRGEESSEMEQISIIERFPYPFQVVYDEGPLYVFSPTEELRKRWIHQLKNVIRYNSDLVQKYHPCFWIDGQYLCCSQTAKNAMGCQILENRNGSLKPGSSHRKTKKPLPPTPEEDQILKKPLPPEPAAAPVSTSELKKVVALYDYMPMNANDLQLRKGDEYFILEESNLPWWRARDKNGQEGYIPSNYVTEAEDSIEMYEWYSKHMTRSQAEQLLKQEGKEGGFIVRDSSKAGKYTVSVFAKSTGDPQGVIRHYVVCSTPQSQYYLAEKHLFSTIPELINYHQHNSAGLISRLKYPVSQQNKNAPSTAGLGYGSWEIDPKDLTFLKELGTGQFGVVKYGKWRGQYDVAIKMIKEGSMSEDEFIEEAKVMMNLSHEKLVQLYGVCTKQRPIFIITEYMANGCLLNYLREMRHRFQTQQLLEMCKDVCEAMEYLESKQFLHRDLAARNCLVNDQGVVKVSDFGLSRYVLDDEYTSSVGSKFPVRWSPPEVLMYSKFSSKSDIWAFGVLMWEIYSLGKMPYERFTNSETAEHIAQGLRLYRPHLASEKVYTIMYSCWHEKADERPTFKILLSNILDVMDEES

Structure (SMILES): Cc1cc(C(=O)NCCC#Cc2cccc3c2CN(C2CCC(=O)NC2=O)C3=O)ccc1B1O[C@H]2C[C@H]3C[C@H](C3(C)C)[C@@]2(CCOCCN2CCC(n3nc(-c4ccc(Oc5ccccc5)cc4)c4c(N)ncnc43)CC2)O1 (mixture of isomers) [Example 15, 4-((3aR,4R,6R,7aS)-3a-(2-(2-(4-(4-amino-3-(4-phenoxyphenyl)-1H-pyrazolo[3,4-d]pyrimidin-1-yl)piperidin-1-yl)ethoxy)ethyl)-5,5-dimethylhexahydro-4,6-methanobenzo[d][1,3,2]dioxaborol-2-yl)-N-(4-(2-(2,6-dioxopiperidin-3-yl)-1-oxoisoindolin-4-yl)but-3-yn-1-yl)-3-methylbenzamide]
DC50: 100 to 500 nM

Structure (SMILES): Cc1cc(C(=O)NCCC#Cc2cccc3c2CN(C2CCC(=O)NC2=O)C3=O)ccc1B1O[C@H]2C[C@H]3C[C@H](C3(C)C)[C@@]2(CCOCC(=O)N2CCC(n3nc(-c4ccc(Oc5ccccc5)cc4)c4c(N)ncnc43)CC2)O1 (mixture of isomers) [Example 17, 4-((3aR,4R,6R,7aS)-3a-(2-(2-(4-(4-amino-3-(4-phenoxyphenyl)-1H-pyrazolo[3,4-d]pyrimidin-1-yl)piperidin-1-yl)-2-oxoethoxy)ethyl)-5,5-dimethylhexahydro-4,6-methanobenzo[d][1,3,2]dioxaborol-2-yl)-N-(4-(2-(2,6-dioxopiperidin-3-yl)-1-oxoisoindolin-4-yl)but-3-yn-1-yl)-3-methylbenzamide]
DC50: 100 to 500 nM

Structure (SMILES): Cc1ccc(C(=O)N(C)CCCOc2cccc3c2CN(C2CCC(=O)NC2=O)C3=O)cc1B1O[C@H]2C[C@H]3C[C@H](C3(C)C)[C@@]2(CCOCC(=O)N2CCC(n3nc(-c4ccc(Oc5ccccc5)cc4)c4c(N)ncnc43)CC2)O1 (mixture of isomers) [Example 19, 3-((3aR,4R,6R,7aS)-3a-(2-(2-(4-(4-amino-3-(4-phenoxyphenyl)-1H-pyrazolo[3,4-d]pyrimidin-1-yl)piperidin-1-yl)-2-oxoethoxy)ethyl)-5,5-dimethylhexahydro-4,6-methanobenzo[d][1,3,2]dioxaborol-2-yl)-N-(3-((2-(2,6-dioxopiperidin-3-yl)-1-oxoisoindolin-4-yl)oxy)propyl)-N,4-dimethylbenzamide]
DC50: 500 to 1000 nM

Structure (SMILES): Cc1cc(C(=O)N(C)CCOc2cccc3c2CN(C2CCC(=O)NC2=O)C3=O)ccc1B1O[C@H]2C[C@H]3C[C@H](C3(C)C)[C@@]2(CCOCC(=O)N2CCC(n3nc(-c4ccc(Oc5ccccc5)cc4)c4c(N)ncnc43)CC2)O1 (mixture of isomers) [Example 20, 4-((3aR,4R,6R,7aS)-3a-(2-(2-(4-(4-amino-3-(4-phenoxyphenyl)-1H-pyrazolo[3,4-d]pyrimidin-1-yl)piperidin-1-yl)-2-oxoethoxy)ethyl)-5,5-dimethylhexahydro-4,6-methanobenzo[d][1,3,2]dioxaborol-2-yl)-N-(2-((2-(2,6-dioxopiperidin-3-yl)-1-oxoisoindolin-4-yl)oxy)ethyl)-N,3-dimethylbenzamide]
DC50: 1000 to 10000 nM

Other lines, results leading:

DC50: 500 to 1000 nM
Structure (SMILES): Cc1cc(C(=O)N(C)CCCOc2ccc3c(c2)n(C)c(=O)n3C2CCC(=O)NC2=O)ccc1B1O[C@H]2C[C@H]3C[C@H](C3(C)C)[C@@]2(CCOCC(=O)N2CCC(n3nc(-c4ccc(Oc5ccccc5)cc4)c4c(N)ncnc43)CC2)O1 (mixture of isomers) [Example 16, 4-((3aR,4R,6R,7aS)-3a-(2-(2-(4-(4-amino-3-(4-phenoxyphenyl)-1H-pyrazolo[3,4-d]pyrimidin-1-yl)piperidin-1-yl)-2-oxoethoxy)ethyl)-5,5-dimethylhexahydro-4,6-methanobenzo[d][1,3,2]dioxaborol-2-yl)-N-(3-((1-(2,6-dioxopiperidin-3-yl)-3-methyl-2-oxo-2,3-dihydro-1H-benzo[d]imidazol-5-yl)oxy)propyl)-N,3-dimethylbenzamide]

DC50: 100 to 500 nM
Structure (SMILES): Cc1cc(C(=O)N(C)CCCOc2ccc3c(c2)n(C)c(=O)n3C2CCC(=O)NC2=O)ccc1B1O[C@H]2C[C@H]3C[C@H](C3(C)C)[C@@]2(CCOCCN2CCC(n3nc(-c4ccc(Oc5ccccc5)cc4)c4c(N)ncnc43)CC2)O1 (stereo partly drawn) [Example 14, 4-((3aR,4R,6R,7aS)-3a-(2-(2-(4-(4-amino-3-(4-phenoxyphenyl)-1H-pyrazolo[3,4-d]pyrimidin-1-yl)piperidin-1-yl)ethoxy)ethyl)-5,5-dimethylhexahydro-4,6-methanobenzo[d][1,3,2]dioxaborol-2-yl)-N-(3-((1-(2,6-dioxopiperidin-3-yl)-3-methyl-2-oxo-2,3-dihydro-1H-benzo[d]imidazol-5-yl)oxy)propyl)-N,3-dimethylbenzamide]

DC50: 500 to 1000 nM
Structure (SMILES): Cc1cc(C(=O)N(C)CCCOc2cccc3c2CN(C2CCC(=O)NC2=O)C3=O)ccc1B1O[C@H]2C[C@H]3C[C@H](C3(C)C)[C@@]2(CCOCC(=O)N2CCC(n3nc(-c4ccc(Oc5ccccc5)cc4)c4c(N)ncnc43)CC2)O1 (stereo partly drawn) [Example 18, 4-((3aR,4R,6R,7aS)-3a-(2-(2-(4-(4-amino-3-(4-phenoxyphenyl)-1H-pyrazolo[3,4-d]pyrimidin-1-yl)piperidin-1-yl)-2-oxoethoxy)ethyl)-5,5-dimethylhexahydro-4,6-methanobenzo[d][1,3,2]dioxaborol-2-yl)-N-(3-((2-(2,6-dioxopiperidin-3-yl)-1-oxoisoindolin-4-yl)oxy)propyl)-N,3-dimethylbenzamide]
